Test results from patent publication US20160046618A1, “Cyclopropyl Fused Thiazin-2-Amine Compounds as Beta-Secretase Inhibitors and Methods of Use” (AMGEN INC., priority 2014, published 2016).

Key:
human recombinant BACE1 = human recombinant BACE1 (Homo sapiens (Human), UniProt P56817); assay: In vitro enzymatic BACE1 FRET assay; type: biochemical; details: read-out: IC50 IP (μM) BACE1 enzyme
Procedure, shortened: (§1)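 Ni-NTA-purified recombinant protease incubated with compound; reaction started with 50 nM FRET peptide substrate (fluorophore/quencher flanking the BACE cleavage site) and run 1 h. Stopped with Tris buffer raising pH to neutral; fluorescence read at ex 488/em 590 nm.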

human recombinant BACE2 = human recombinant BACE2 (Homo sapiens (Human), UniProt Q9Y5Z0); assay: In vitro enzymatic BACE2 FRET assay; type: biochemical; details: read-out: IC50 IP (μM) BACE2 enzyme
human recombinant BACE2, sequence (Q9Y5Z0 63-518): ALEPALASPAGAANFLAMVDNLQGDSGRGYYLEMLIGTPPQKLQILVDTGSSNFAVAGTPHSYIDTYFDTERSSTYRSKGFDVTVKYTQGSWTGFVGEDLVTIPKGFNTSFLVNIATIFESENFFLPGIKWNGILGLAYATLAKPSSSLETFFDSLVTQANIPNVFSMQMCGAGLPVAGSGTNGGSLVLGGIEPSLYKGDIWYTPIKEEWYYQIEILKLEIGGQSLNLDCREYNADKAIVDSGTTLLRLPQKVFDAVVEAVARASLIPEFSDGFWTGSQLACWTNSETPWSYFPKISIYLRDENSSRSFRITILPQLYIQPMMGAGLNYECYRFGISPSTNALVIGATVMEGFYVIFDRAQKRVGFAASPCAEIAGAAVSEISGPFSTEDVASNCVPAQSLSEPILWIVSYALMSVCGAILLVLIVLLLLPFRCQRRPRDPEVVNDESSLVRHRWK
Procedure, shortened: as §1

[1] = system: Aβ40 in conditioned medium of cells stably expressing Amyloid Precursor Protein (APP); assay: In vitro BACE-1 cell-based assay (Aβ40 sandwich ELISA); details: read-out: IC50 IP (μM) BACE1 cell
Procedure, shortened: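 APP-expressing cells treated 24 h at 37 °C with compound in 10-point dose response (top 100 μM or 10 μM, 0.1% DMSO final). Secreted Aβ40 in conditioned medium quantified by sandwich ELISA (pAb40 capture, biotinylated 6E10 detection, time-resolved europium fluorescence); IC50 from percent inhibition versus concentration.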

Recombinant Cat D = Recombinant Cat D (Homo sapiens (Human), UniProt P07339); assay: In vitro enzymatic Cathepsin D (Cat D) FRET assay; type: biochemical; details: read-out: IC50 IP (μM) CatD
Recombinant Cat D, sequence (P07339 65-412): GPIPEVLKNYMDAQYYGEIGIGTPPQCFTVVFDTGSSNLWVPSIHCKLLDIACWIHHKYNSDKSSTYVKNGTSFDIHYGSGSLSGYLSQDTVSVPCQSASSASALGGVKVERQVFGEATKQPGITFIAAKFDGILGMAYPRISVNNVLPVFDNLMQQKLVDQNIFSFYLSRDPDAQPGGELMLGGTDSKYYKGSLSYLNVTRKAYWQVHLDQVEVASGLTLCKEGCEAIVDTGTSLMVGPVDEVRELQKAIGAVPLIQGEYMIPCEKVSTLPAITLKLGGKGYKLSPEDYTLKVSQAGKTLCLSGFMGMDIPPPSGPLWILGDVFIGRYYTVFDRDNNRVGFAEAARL
Procedure, shortened: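 Recombinant Cat D expressed in CHO cells, assayed in 0.05 M citrate pH 3.5 with 5 mM CHAPS and 10% DMSO final. Reaction started with 20 nM FRET peptide substrate, incubated one hour, then stopped by Tris buffer to neutral pH; fluorescence read at ex 500/em 580 nm.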

human recombinant BACE1, sequence (P56817 46-501): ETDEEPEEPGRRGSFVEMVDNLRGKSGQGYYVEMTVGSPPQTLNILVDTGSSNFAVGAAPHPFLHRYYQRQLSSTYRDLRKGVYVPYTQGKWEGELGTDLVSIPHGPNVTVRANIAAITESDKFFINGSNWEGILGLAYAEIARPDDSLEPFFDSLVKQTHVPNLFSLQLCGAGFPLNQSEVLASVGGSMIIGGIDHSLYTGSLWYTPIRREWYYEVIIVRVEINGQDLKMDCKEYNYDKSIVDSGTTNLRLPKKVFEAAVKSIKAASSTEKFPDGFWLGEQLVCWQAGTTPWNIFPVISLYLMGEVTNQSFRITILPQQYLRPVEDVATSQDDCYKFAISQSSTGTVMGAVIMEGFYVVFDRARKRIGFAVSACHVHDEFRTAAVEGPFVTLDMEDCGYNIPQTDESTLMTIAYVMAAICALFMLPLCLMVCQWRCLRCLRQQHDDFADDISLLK

An IC50 (human recombinant BACE1) of 0.00022 µM, an IC50 (human recombinant BACE2) of under 0.0061 µM and an IC50 [1] of 0.00126 µM were found for `C#CCOc1cnc(C(=O)Nc2ccc(F)c([C@@]3(CF)N=C(N)S[C@@]4(c5cnco5)C[C@@H]34)c2)cn1` [Example 780, N-(3-((1S,5S,6S)-3-amino-5-(fluoromethyl)-1-(1,3-oxazol-5-yl)-2-thia-4-azabicyclo[4.1.0]hept-3-en-5-yl)-4-fluorophenyl)-5-(2-propyn-1-yloxy)-2-pyrazinecarboxamide] in this work. The IC50 (Recombinant Cat D) was 116 µM.

An IC50 (human recombinant BACE1) of 0.000422 µM, an IC50 (human recombinant BACE2) of 0.00329 µM and an IC50 [1] of 0.00577 µM were found for `C#CCOc1cnc2c(Nc3ccc(F)c([C@@]4(CF)N=C(N)S[C@@]5(c6cnco6)C[C@@H]45)c3)nccc2n1` [Example 781, N-(3-((1S,5S,6S)-3-amino-5-(fluoromethyl)-1-(1,3-oxazol-5-yl)-2-thia-4-azabicyclo[4.1.0]hept-3-en-5-yl)-4-fluorophenyl)-2-(2-propyn-1-yloxy)pyrido[3,4-b]pyrazin-5-amine] in this work. It also gave an IC50 (Recombinant Cat D) of 397 µM.

An IC50 (human recombinant BACE1) of 0.000577 µM, an IC50 (human recombinant BACE2) of 0.0245 µM and an IC50 [1] of 0.0197 µM were found for `C#CCOc1cnc2c(Nc3ccc(F)c([C@@]4(CF)N=C(N)S[C@@]5(c6cnco6)C[C@@H]45)c3)ncnc2c1` [Example 782, N-(3-((1S,5S,6S)-3-amino-5-(fluoromethyl)-1-(1,3-oxazol-5-yl)-2-thia-4-azabicyclo[4.1.0]hept-3-en-5-yl)-4-fluorophenyl)-7-(2-propyn-1-yloxy)pyrido[3,2-d]pyrimidin-4-amine] in this work. It also gave an IC50 (Recombinant Cat D) of 792 µM.

An IC50 (human recombinant BACE1) of 0.000501 µM, an IC50 (human recombinant BACE2) of 0.00245 µM and an IC50 [1] of 0.00485 µM were found for `NC1=N[C@](CF)(c2cc(NC(=O)c3cnc(OCc4ncco4)cn3)ccc2F)[C@@H]2C[C@]2(c2cnco2)S1` [Example 783, N-(3-((1S,5S,6S)-3-amino-5-(fluoromethyl)-1-(1,3-oxazol-5-yl)-2-thia-4-azabicyclo[4.1.0]hept-3-en-5-yl)-4-fluorophenyl)-5-(1,3-oxazol-2-ylmethoxy)-2-pyrazinecarboxamide] in this work. For the same molecule, the IC50 (Recombinant Cat D) was over 400 µM.

An IC50 (human recombinant BACE1) of 0.000318 µM, an IC50 (human recombinant BACE2) of under 0.00203 µM and an IC50 [1] of 0.00152 µM were found for `C#CCOc1cnc(C(=O)Nc2ccc(F)c([C@@]3(CF)N=C(N)S[C@@]4(c5ocnc5C)C[C@@H]34)c2)cn1` [Example 784, N-(3-((1S,5S,6S)-3-amino-5-(fluoromethyl)-1-(4-methyloxazol-5-yl)-2-thia-4-azabicyclo[4.1.0]hept-3-en-5-yl)-4-fluorophenyl)-5-(prop-2-yn-1-yloxy)pyrazine-2-carboxamide] in this work. For the same molecule, the IC50 (Recombinant Cat D) was 166 µM.

An IC50 (human recombinant BACE1) of 0.00112 µM, an IC50 (human recombinant BACE2) of under 0.00203 µM and an IC50 [1] of 0.0102 µM were found for `NC1=N[C@](CF)(c2cc(NC(=O)c3ccc(Cl)cn3)ccc2F)[C@@H]2C[C@]2(c2cnco2)S1` [Example 785, N-(3-((1S,5S,6S)-3-amino-5-(fluoromethyl)-1-(1,3-oxazol-5-yl)-2-thia-4-azabicyclo[4.1.0]hept-3-en-5-yl)-4-fluorophenyl)-5-chloro-2-pyridinecarboxamide] in this work. The IC50 (Recombinant Cat D) was 621 µM.

An IC50 (human recombinant BACE1) of 0.000976 µM, an IC50 (human recombinant BACE2) of under 0.00203 µM and an IC50 [1] of 0.0464 µM were found for `NC1=N[C@](CF)(c2cc(NC(=O)c3ccc(Cl)cn3)ccc2F)[C@@H]2C[C@]2(c2ccon2)S1` [Example 786, N-(3-((1S,5S,6S)-3-amino-5-(fluoromethyl)-1-(isoxazol-3-yl)-2-thia-4-azabicyclo[4.1.0]hept-3-en-5-yl)-4-fluorophenyl)-5-chloropicolinamide] in this work. It also gave an IC50 (Recombinant Cat D) of 584 µM.

An IC50 (human recombinant BACE1) of 0.000847 µM, an IC50 (human recombinant BACE2) of under 0.00203 µM and an IC50 [1] of 0.0139 µM were found for `Cc1ncoc1[C@]12C[C@H]1[C@@](CF)(c1cc(NC(=O)c3ccc(Cl)cn3)ccc1F)N=C(N)S2` [Example 787, N-(3-((1S,5S,6S)-3-amino-5-(fluoromethyl)-1-(4-methyl-1,3-oxazol-5-yl)-2-thia-4-azabicyclo[4.1.0]hept-3-en-5-yl)-4-fluorophenyl)-5-chloro-2-pyridinecarboxamide] in this work. For the same molecule, the IC50 (Recombinant Cat D) was 1230 µM.

An IC50 (human recombinant BACE1) of 0.00127 µM, an IC50 (human recombinant BACE2) of 0.0122 µM and an IC50 [1] of 0.0161 µM were found for `C#CCOc1cnc2c(Nc3ccc(F)c([C@@]4(CF)N=C(N)S[C@@]5(c6ocnc6C)C[C@@H]45)c3)ncnc2c1` [Example 788, N-(3-((1S,5S,6S)-3-amino-5-(fluoromethyl)-1-(4-methyl-1,3-oxazol-5-yl)-2-thia-4-azabicyclo[4.1.0]hept-3-en-5-yl)-4-fluorophenyl)-7-(2-propyn-1-yloxy)pyrido[3,2-d]pyrimidin-4-amine] in this work. For the same molecule, the IC50 (Recombinant Cat D) was 485 µM.

An IC50 (human recombinant BACE1) of 0.000528 µM, an IC50 (human recombinant BACE2) of 0.00936 µM and an IC50 [1] of 0.0259 µM were found for `C#CCOc1ccc(C(=O)Nc2ccc(F)c([C@@]3(CF)N=C(N)S[C@@]4(c5ocnc5C)C[C@@H]34)c2)nc1` [Example 789, N-(3-((1S,5S,6S)-3-amino-5-(fluoromethyl)-1-(4-methyl-1,3-oxazol-5-yl)-2-thia-4-azabicyclo[4.1.0]hept-3-en-5-yl)-4-fluorophenyl)-5-(2-propyn-1-yloxy)-2-pyridinecarboxamide] in this work. The IC50 (Recombinant Cat D) was 835 µM.

An IC50 (human recombinant BACE1) of 0.000338 µM, an IC50 (human recombinant BACE2) of under 0.00203 µM and an IC50 [1] of 0.0028 µM were found for `CN(C)C(=O)[C@]12C[C@H]1[C@@](CF)(c1cc(NC(=O)c3ccc(Cl)cn3)ccc1F)N=C(N)S2` [Example 790, (1S,5S,6S)-3-amino-5-(5-(((5-chloro-2-pyridinyl)carbonyl)amino)-2-fluorophenyl)-5-(fluoromethyl)-N,N-dimethyl-2-thia-4-azabicyclo[4.1.0]hept-3-ene-1-carboxamide] in this work. For the same molecule, the IC50 (Recombinant Cat D) was 792 µM.

An IC50 (human recombinant BACE1) of 0.000658 µM, an IC50 (human recombinant BACE2) of 0.0712 µM and an IC50 [1] of 0.00183 µM were found for `C#CCOc1cnc2c(Nc3ccc(F)c([C@@]4(C)N=C(N)S[C@@]5(C(=O)NC6CC6)C[C@H]54)c3)ncnc2c1` [Example 791, (1S,5S,6S)-3-amino-N-cyclopropyl-5-(2-fluoro-5-((7-(2-propyn-1-yloxy)pyrido[3,2-d]pyrimidin-4-yl)amino)phenyl)-5-methyl-2-thia-4-azabicyclo[4.1.0]hept-3-ene-1-carboxamide] in this work. The IC50 (Recombinant Cat D) was 317 µM.

An IC50 (human recombinant BACE1) of 0.00075 µM, an IC50 (human recombinant BACE2) of under 0.00203 µM and an IC50 [1] of 0.000971 µM were found for `C[C@]1(c2cc(NC(=O)c3ccc(Cl)cn3)ccc2F)N=C(N)S[C@@]2(C(=O)NC3CC3)C[C@H]21` [Example 792, (1S,5S,6S)-3-amino-5-(5-(((5-chloro-2-pyridinyl)carbonyl)amino)-2-fluorophenyl)-N-cyclopropyl-5-methyl-2-thia-4-azabicyclo[4.1.0]hept-3-en-1-carboxamide] in this work. For the same molecule, the IC50 (Recombinant Cat D) was 134 µM.

An IC50 (human recombinant BACE1) of 0.000293 µM, an IC50 (human recombinant BACE2) of 0.00477 µM and an IC50 [1] of 0.0153 µM were found for `C#CCOc1ccc(C(=O)Nc2ccc(F)c([C@@]3(CF)N=C(N)S[C@@]4(c5ccon5)C[C@@H]34)c2)nc1` [Example 793, N-(3-((1S,5S,6S)-3-amino-5-(fluoromethyl)-1-(3-isoxazolyl)-2-thia-4-azabicyclo[4.1.0]hept-3-en-5-yl)-4-fluorophenyl)-5-(2-propyn-1-yloxy)-2-pyridinecarboxamide] in this work. The IC50 (Recombinant Cat D) was 482 µM.

An IC50 (human recombinant BACE1) of 0.000846 µM, an IC50 (human recombinant BACE2) of 0.0397 µM and an IC50 [1] of 0.0012 µM were found for `C#CCOc1cnc2c(Nc3ccc(F)c([C@@]4(C)N=C(N)S[C@@]5(C(=O)NC6CC6)C[C@H]54)c3)nccc2n1` [Example 794, (1S,5S,6S)-3-amino-N-cyclopropyl-5-(2-fluoro-5-((2-(2-propyn-1-yloxy)pyrido[3,4-b]pyrazin-5-yl)amino)phenyl)-5-methyl-2-thia-4-azabicyclo[4.1.0]hept-3-ene-1-carboxamide] in this work. For the same molecule, the IC50 (Recombinant Cat D) was 316 µM.

An IC50 (human recombinant BACE1) of 0.000859 µM, an IC50 (human recombinant BACE2) of 0.0628 µM and an IC50 [1] of 0.00354 µM were found for `C[C@]1(c2cc(Nc3nccc4nc(OCc5ncco5)cnc34)ccc2F)N=C(N)S[C@@]2(C(=O)NC3CC3)C[C@H]21` [Example 796, (1S,5S,6S)-3-amino-N-cyclopropyl-5-(2-fluoro-5-((2-(1,3-oxazol-2-ylmethoxy)pyrido[3,4-b]pyrazin-5-yl)amino)phenyl)-5-methyl-2-thia-4-azabicyclo[4.1.0]hept-3-ene-1-carboxamide] in this work. It also gave an IC50 (Recombinant Cat D) of 543 µM.

An IC50 (human recombinant BACE1) of 0.00452 µM, an IC50 (human recombinant BACE2) of under 0.00203 µM and an IC50 [1] of 0.0211 µM were found for `CC(C)(C)NC(=O)[C@]12C[C@H]1[C@@](C)(c1cc(NC(=O)c3ccc(Cl)cn3)ccc1F)N=C(N)S2` [Example 797, (1S,5S,6S)-3-amino-N-tert-butyl-5-(5-(((5-chloro-2-pyridinyl)carbonyl)amino)-2-fluorophenyl)-5-methyl-2-thia-4-azabicyclo[4.1.0]hept-3-ene-1-carboxamide] in this work. The IC50 (Recombinant Cat D) was 147 µM.

An IC50 (human recombinant BACE1) of 0.000294 µM, an IC50 (human recombinant BACE2) of 0.0272 µM and an IC50 [1] of 0.000715 µM were found for `C#CCOc1cnc(C(=O)Nc2ccc(F)c([C@@]3(C)N=C(N)S[C@@]4(C(=O)NC(C)(C)C)C[C@H]43)c2)cn1` [Example 798, (1S,5S,6S)-3-amino-N-tert-butyl-5-(2-fluoro-5-(((5-(2-propyn-1-yloxy)-2-pyrazinyl)carbonyl)amino)phenyl)-5-methyl-2-thia-4-azabicyclo[4.1.0]hept-3-ene-1-carboxamide] in this work. For the same molecule, the IC50 (Recombinant Cat D) was 4.72 µM.

An IC50 (human recombinant BACE1) of 0.000382 µM, an IC50 (human recombinant BACE2) of 0.015 µM and an IC50 [1] of 0.00075 µM were found for `C[C@]1(c2cc(NC(=O)c3cnc(OCc4ncco4)cn3)ccc2F)N=C(N)S[C@@]2(C(=O)NC3CC3)C[C@H]21` [Example 799, (1S,5S,6S)-3-amino-N-cyclopropyl-5-(2-fluoro-5-(((5-(1,3-oxazol-2-ylmethoxy)-2-pyrazinyl)carbonyl)amino)phenyl)-5-methyl-2-thia-4-azabicyclo[4.1.0]hept-3-ene-1-carboxamide] in this work. The IC50 (Recombinant Cat D) was 349 µM.
